The nature of one series: in vitro. Type of series: cell-based. Particulars: African green monkey, CC50. As for the experimental part:
In parallel, the toxicity of the compounds was assessed on the same plates. Once the read-out for the eGFP signal was done, 10 μL of resazurin, a cell viability stain, was added to all wells of the 384-well plates. The resazurin assay is based on the reduction of the blue resazurin by NADH, produced by the cells, into the highly fluorescent product, resorufin. The formation of pink fluorescent resorufin is directly related to the number of viable cells in the well. The plates were incubated for an additional 5 hours in a fully humidified incubator (37° C., 5% CO2). Next, the plates were measured on an Infinite reader (Tecan) using an excitation wavelength of 530 nm. The half maximal cytotoxic concentration (CC50) was also determined, defined as the concentration required to reduce the resazurin conversion by 50% compared to that of the cell control wells. Finally, the selectivity index (SI) was determined for the compounds, which was calculated as followed: SI=CC50/EC50.

The next series concerns DENV-2 16681 strain. The series can be described thus: DENV-2 antiviral assay (eGFP-labeled virus in Vero cells). Type of series: cell-based, Dengue virus. Particulars: DENV-2 16681 eGFP, MOI 0.5, 3 days. How it is done:
The antiviral activity of all the compounds of the invention was tested against DENV-2 16681 strain which was labeled with enhanced green fluorescent protein (eGPF; Table 1). The culture medium consists of minimal essential medium supplemented with 2% of heat-inactivated fetal calf serum, 0.04% gentamycin (50 mg/mL) and 2 mM of L-glutamine. Vero cells, obtained from ECACC, were suspended in culture medium and 25 μL was added to 384-well plates (2500 cells/well), which already contain the antiviral compounds. Typically, these plates contain a 4-fold serial dilution of 9 dilution steps of the test compound at 200 times the final concentration in 100% DMSO (200 nL). In addition, each compound concentration is tested in quadruplicate (final concentration range: 25 μM-0.00038 μM). Finally, each plate contains wells which are assigned as virus controls (containing cells and virus in the absence of compound), cell controls (containing cells in the absence of virus and compound) and medium controls (containing medium in the absence of cells, virus and compounds). To the wells assigned as medium control, 25 μL of culture medium was added instead of Vero cells. Once the cells were added to the plates, the plates were incubated for 30 minutes at room temperature to allow the cells to distribute evenly within the wells. Next, the plates were incubated in a fully humidified incubator (37° C., 5% CO2) until the next day. Then, DENV-2 strain 16681, labeled with eGFP, was added at a multiplicity of infection (MOI) of 0.5. Therefore, 15 μL of virus suspension was added to all the wells containing test compound and to the wells assigned as virus control. In parallel, 15 μL of culture medium was added to the medium and cell controls. Next, the plates were incubated for 3 days in a fully humidified incubator (37° C., 5% CO2). At the day of the read out, the eGFP fluorescence was measured using an automated fluorescence microscope at 488 nm (blue laser). Using an in-house LIMS system, inhibition dose response curves for each compound were calculated and the half maximal effective concentration (EC50) was determined. Therefore, the percent inhibition (I) for every test concentration is calculated using the following formula: I=100*(ST−SCC)/(SVC−SCC); ST, SCC and SVC are the amount of eGFP signal in the test compound, cell control and virus control wells, respectively. The EC50 represents the concentration of a compound at which the virus replication is inhibited with 50%, as measured by a 50% reduction of the eGFP fluorescent intensity compared to the virus control. The EC50 is calculated using linear interpolation.

[1] abbreviates: Dengue virus, DENV2, Vero, 72 h.

Molecules are shown by their SMILES. Where only a bound is given, the exact number is not on record here.

A word on the CC50: it is the concentration at which the toxic effect on the cells reaches its halfway point. Read a low CC50 as harm at low concentration. Usually EC50 stands for the midpoint of the concentration-response curve. Compound `COc1cc(NC(C(=O)c2c[nH]c3cc(F)ccc23)c2ccc(F)cc2OC)cc(S(C)(=O)=O)c1` (racemic) [Compound 1, 1-(6-fluoro-1H-indol-3-yl)-2-(4-fluoro-2-methoxyphenyl)-2-((3-methoxy-5-(methylsulfonyl)phenyl)amino)ethanone] returned a 50% cytotoxic concentration (CC50) in “in vitro” of 9.9 µM. Further, the 50% effective concentration (EC50) with DENV-2 16681 strain (setting [1]) amounted to 2 nM.
`COc1cc(NC(C(=O)c2c[nH]c3c(C)c(F)ccc23)c2ccc(F)cc2OC)cc(S(C)(=O)=O)c1` (racemic) [Compound 2, 2-(4-fluoro-2-methoxyphenyl)-1-(6-fluoro-7-methyl-1H-indol-3-yl)-2-((3-methoxy-5-(methylsulfonyl)phenyl)amino)ethanone]: the half-maximal cytotoxic concentration (CC50) in “in vitro” worked out at 8 µM. The same compound showed an EC50 in the series with DENV-2 16681 strain (setting [1]) of 1.3 nM.
`COc1cc(NC(C(=O)c2c[nH]c3c(C)c(Cl)ccc23)c2ccc(F)cc2OC)cc(S(C)(=O)=O)c1` (racemic) [Compound 3, 1-(6-chloro-7-methyl-1H-indol-3-yl)-2-(4-fluoro-2-methoxyphenyl)-2-((3-methoxy-5-(methylsulfonyl)phenyl)amino)ethanone] had a CC50 in “in vitro” of 7.2 µM. Further, in the series with DENV-2 16681 strain (setting [1]), a half-maximal effect (EC50) was put at 0.58 nM.
The like results for `COc1cc(NC(C(=O)c2c[nH]c3cc(Cl)ccc23)c2ccc(F)cc2OC)cc(S(C)(=O)=O)c1` (racemic) [Compound 4, 1-(6-chloro-1H-indol-3-yl)-2-(4-fluoro-2-methoxyphenyl)-2-((3-methoxy-5-(methylsulfonyl)phenyl)amino)ethanone] were, in that order, 6.6 µM and 1.1 nM.
As for `COc1cc(NC(C(=O)c2c[nH]c3cc(OC)ccc23)c2ccc(F)cc2OC)cc(S(C)(=O)=O)c1` (racemic) [Compound 5, 2-(4-fluoro-2-methoxyphenyl)-1-(6-methoxy-1H-indol-3-yl)-2-((3-methoxy-5-(methylsulfonyl)phenyl)amino)ethanone], in the series “in vitro”, the CC50 was 24 µM. Also, a half-maximal response with DENV-2 16681 strain (setting [1]) (EC50) required 2 nM.
The like results for `COc1cc(NC(C(=O)c2c[nH]c3cc(F)c(F)cc23)c2ccc(F)cc2OC)cc(S(C)(=O)=O)c1` (racemic) [Compound 7, 1-(5,6-difluoro-1H-indol-3-yl)-2-(4-fluoro-2-methoxyphenyl)-2-((3-methoxy-5-(methylsulfonyl)phenyl)amino)ethanone] were, in that order, 5 µM and 1.5 nM.
`COc1cc(NC(C(=O)c2c[nH]c3c(C)cc(F)cc23)c2ccc(F)cc2OC)cc(S(C)(=O)=O)c1` (racemic) [Compound 8, 2-(4-fluoro-2-methoxyphenyl)-1-(5-fluoro-7-methyl-1H-indol-3-yl)-2-((3-methoxy-5-(methylsulfonyl)phenyl)amino)ethanone] returned a 50% cytotoxic concentration (CC50) in “in vitro” of 7.6 µM. Also, in the series on DENV-2 16681 strain (setting [1]), the EC50 was found to be 2.8 nM.
For `COc1cc(NC(C(=O)c2c[nH]c3cc(C)c(F)cc23)c2ccc(F)cc2OC)cc(S(C)(=O)=O)c1` (racemic) [Compound 9, 2-(4-fluoro-2-methoxyphenyl)-1-(5-fluoro-6-methyl-1H-indol-3-yl)-2-((3-methoxy-5-(methylsulfonyl)phenyl)amino)ethanone], in that order: 8.8 µM and 1.6 nM.
`COc1cc(NC(C(=O)c2c[nH]c3cc(OC)c(C)cc23)c2ccc(F)cc2OC)cc(S(C)(=O)=O)c1` (racemic) [Compound 10, 2-(4-fluoro-2-methoxyphenyl)-2-((3-methoxy-5-(methylsulfonyl)phenyl)amino)-1-(6-methoxy-5-methyl-1H-indol-3-yl)ethanone] came in with a cytotoxic concentration (CC50) in “in vitro” of 7.8 µM. In the series on DENV-2 16681 strain (setting [1]), this compound registered an EC50 of 1.1 nM.
Take `COc1cc(NC(C(=O)c2c[nH]c3cc(OC)c(F)cc23)c2ccc(F)cc2OC)cc(S(C)(=O)=O)c1` (racemic) [Compound 11, 2-(4-fluoro-2-methoxyphenyl)-1-(5-fluoro-6-methoxy-1H-indol-3-yl)-2-((3-methoxy-5-(methylsulfonyl)phenyl)amino)ethanone]: the CC50 in the series “in vitro” stood at 12 µM. Moreover, in the series with DENV-2 16681 strain (setting [1]), the EC50 turned out to be 3 nM.
The compound `COc1cc(NC(C(=O)c2c[nH]c3c(Cl)c(OC)ccc23)c2ccc(F)cc2OC)cc(S(C)(=O)=O)c1` (racemic) [Compound 12, 1-(7-chloro-6-methoxy-1H-indol-3-yl)-2-(4-fluoro-2-methoxyphenyl)-2-((3-methoxy-5-(methylsulfonyl)phenyl)amino)ethanone] yielded a half-maximal cytotoxic concentration (CC50) in the series “in vitro” of over 25 µM. In addition, the concentration giving a half-maximal response (EC50) with DENV-2 16681 strain (setting [1]) stood at 0.6 nM.
In “in vitro”, `COc1cc(NC(C(=O)c2c[nH]c3c(F)c(F)ccc23)c2ccc(F)cc2OC)cc(S(C)(=O)=O)c1` (racemic) [Compound 13, 1-(6,7-difluoro-1H-indol-3-yl)-2-(4-fluoro-2-methoxyphenyl)-2-((3-methoxy-5-(methylsulfonyl)phenyl)amino)ethanone] displayed a CC50 of 7.6 µM. The compound further registered an EC50 with DENV-2 16681 strain (setting [1]) of 1.4 nM.
On to `COc1cc(NC(C(=O)c2c[nH]c3cc(F)c(C)cc23)c2ccc(F)cc2OC)cc(S(C)(=O)=O)c1` (racemic) [Compound 14, 2-(4-fluoro-2-methoxyphenyl)-1-(6-fluoro-5-methyl-1H-indol-3-yl)-2-((3-methoxy-5-(methylsulfonyl)phenyl)amino)ethanone], for which the CC50 in “in vitro” is 5.3 µM. Further, the 50% effective concentration (EC50) in the series with DENV-2 16681 strain (setting [1]) is 1.5 nM.
`COc1cc(NC(C(=O)c2c[nH]c3ccc(C)cc23)c2ccc(F)cc2OC)cc(S(C)(=O)=O)c1` (racemic) [Compound 15, 2-(4-fluoro-2-methoxyphenyl)-2-((3-methoxy-5-(methylsulfonyl)phenyl)amino)-1-(5-methyl-1H-indol-3-yl)ethanone] displayed a CC50 in the series “in vitro” of 7.8 µM. In the series with DENV-2 16681 strain (setting [1]), the half-maximal effective concentration (EC50) is 1.5 nM.
For `COc1cc(NC(C(=O)c2c[nH]c3cc(OC)c(Cl)cc23)c2ccc(F)cc2OC)cc(S(C)(=O)=O)c1` (racemic) [Compound 16, 1-(5-chloro-6-methoxy-1H-indol-3-yl)-2-(4-fluoro-2-methoxyphenyl)-2-((3-methoxy-5-(methylsulfonyl)phenyl)amino)ethanone], in that order: 8.8 µM and 0.66 nM.
Compound `COc1cc(NC(C(=O)c2c[nH]c3ccc(C(F)(F)F)cc23)c2ccc(F)cc2OC)cc(S(C)(=O)=O)c1` (racemic) [Compound 17, 2-(4-fluoro-2-methoxyphenyl)-2-((3-methoxy-5-(methylsulfonyl)phenyl)amino)-1-(5-(trifluoromethyl)-1H-indol-3-yl)ethanone] had a CC50 in “in vitro” of 3.5 µM. The compound further registered an EC50 with DENV-2 16681 strain (setting [1]) of 0.24 nM.
For `COc1cc(NC(C(=O)c2c[nH]c3ccc(OC(F)(F)F)cc23)c2ccc(F)cc2OC)cc(S(C)(=O)=O)c1` (racemic) [Compound 18, 2-(4-fluoro-2-methoxyphenyl)-2-((3-methoxy-5-(methylsulfonyl)phenyl)amino)-1-(5-(trifluoromethoxy)-1H-indol-3-yl)ethanone], in that order: 3.3 µM and 0.25 nM.
Compound `COc1cc(NC(C(=O)c2c[nH]c3cc(OC)ccc23)c2ccc(F)cc2OC)cc(S(C)(=O)=O)c1` (single isomer, unassigned) [Enantiomer 5A, 2-(4-fluoro-2-methoxyphenyl)-1-(6-methoxy-1H-indol-3-yl)-2-((3-methoxy-5-(methylsulfonyl)phenyl)amino)ethanone] returned a CC50 in “in vitro” of 24 µM. The EC50 in the series on DENV-2 16681 strain (listed as 5A) was 70 nM.
As to `COc1cc(NC(C(=O)c2c[nH]c3c(F)c(F)ccc23)c2ccc(F)cc2OC)cc(S(C)(=O)=O)c1` (single isomer, unassigned) [Enantiomer 13A, 1-(6,7-difluoro-1H-indol-3-yl)-2-(4-fluoro-2-methoxyphenyl)-2-((3-methoxy-5-(methylsulfonyl)phenyl)amino)ethanone], the CC50 in the series “in vitro” came out at 9.5 µM. The compound also yielded a half-maximal effective concentration (EC50) in the series with DENV-2 16681 strain (listed as 13A) of 17 nM.

(Values after patent US10029984B2, “Mono- or di-substituted indole derivatives as dengue viral replication inhibitors” (Janssen Pharmaceuticals, Inc., priority 2015, dated 2018).)
